Test results reported in patent publication US9637469B2, “Pyridine derivative” (Teijin Pharma Limited, priority 2012, dated 2017).

Target: T1, human URAT1 (Homo sapiens, UniProt Q96S37)
T1 construct: Full-length cDNA of human URAT1 (hURAT1)
T1 sequence (Q96S37 1-553): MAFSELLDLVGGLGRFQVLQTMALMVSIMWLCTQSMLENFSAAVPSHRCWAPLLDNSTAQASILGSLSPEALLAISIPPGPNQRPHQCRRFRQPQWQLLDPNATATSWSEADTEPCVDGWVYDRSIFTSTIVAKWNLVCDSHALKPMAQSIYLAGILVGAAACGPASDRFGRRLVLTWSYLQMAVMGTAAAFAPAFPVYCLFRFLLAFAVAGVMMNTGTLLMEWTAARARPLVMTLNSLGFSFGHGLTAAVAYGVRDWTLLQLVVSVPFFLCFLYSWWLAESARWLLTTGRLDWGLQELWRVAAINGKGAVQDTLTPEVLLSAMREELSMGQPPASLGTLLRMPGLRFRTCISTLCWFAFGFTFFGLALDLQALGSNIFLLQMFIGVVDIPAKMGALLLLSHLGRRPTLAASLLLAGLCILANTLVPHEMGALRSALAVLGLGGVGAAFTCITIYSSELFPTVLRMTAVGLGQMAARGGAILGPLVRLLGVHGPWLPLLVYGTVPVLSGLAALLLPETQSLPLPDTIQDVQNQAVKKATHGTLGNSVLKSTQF
Assay: Test for inhibition of uric acid transport using human URAT1-expressing cells;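 further: three stars up to 0.2 µM two stars 0.2-2 µM one star 2-20 µM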
Format: cell-based
Settings: HEK 293 cells expressing human URAT1; 14C-labeled uric acid 25 μM; uptake 37° C. for 5 min
Method in brief: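 HEK293 cells stably transfected with full-length hURAT1, preincubated 10 min at 37 °C in HBSS with NaCl replaced by Na gluconate. Uptake of 25 μM ¹⁴C-uric acid with compound ran 5 min at 37 °C, then scintillation counting. IC50 derived from % of DMSO-control URAT1-specific uptake.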

Structure (SMILES) | Inhibitory Activity (IC50 of uric acid transport inhibition)
COc1ccc(-c2nc(C)c(C(=O)O)n2Cc2cc(Cl)ccc2Cl)cn1 [Compound A161, 1-(2,5-dichlorobenzyl)-2-(6-methoxypyridin-3-yl)-4-methyl-1H-imidazole-5-carboxylic acid] | * *
Cc1nc(-c2cncc(Cl)c2)n(Cc2sc(Cl)cc2Cl)c1C(=O)O [Compound A229, 2-(5-chloropyridin-3-yl)-1-((2,4-dichlorothiophen-5-yl)methyl)-4-methyl-1H-imidazole-5-carboxylic acid] | * *
O=C(O)c1c(C(F)(F)F)nc(-c2cncc(F)c2)n1Cc1cc(Cl)ccc1Cl [Compound A136, 1-(2,5-dichlorobenzyl)-2-(5-fluoropyridin-3-yl)-4-(trifluoromethyl)-1H-imidazole-5-carboxylic acid] | * * *
Cc1nc(-c2cncc(C3CC3)c2)n(Cc2cc(Cl)ccc2Cl)c1C(=O)O [Compound A168, 2-(5-cyclopropylpyridin-3-yl)-1-(2,5-dichlorobenzyl)-4-methyl-1H-imidazole-5-carboxylic acid] | * * *
Cc1cncc(-c2ccc(C(=O)NS(=O)(=O)C3CC3)n2Cc2cc(Cl)ccc2Cl)c1 [Compound B32, N-(cyclopropylsulfonyl)-1-(2,5-dichlorobenzyl)-2-(5-methylpyridin-3-yl)-1H-pyrrole-5-carboxamide] | * * *
O=C(O)c1ccc(-c2cncc(Cl)c2)n1Cc1cc(Cl)ccc1Cl [Compound B17, 2-(5-chloropyridin-3-yl)-1-(2,5-dichlorobenzyl)-1H-pyrrole-5-carboxylic acid] | * * *
Cc1cncc(-c2nc(C)c(C(=O)O)n2Cc2cc(C)ccc2Cl)c1 [Compound A231, 1-(2-chloro-5-methylbenzyl)-4-methyl-2-(5-methylpyridin-3-yl)-1H-imidazole-5-carboxylic acid] | * * *
CCSc1nc(-c2cccnc2)n(Cc2cc(Cl)ccc2Cl)c1C(=O)O [Compound A105, 1-(2,5-dichlorobenzyl)-4-(ethylthio)-2-(pyridin-3-yl)-1H-imidazole-5-carboxylic acid] | * * *
CCC(O)(CC)c1nc(-c2cccnc2)n(Cc2cc(Cl)ccc2Cl)c1C(=O)O [Compound A109, 1-(2,5-dichlorobenzyl)-4-(3-hydroxypentan-3-yl)-2-(pyridin-3-yl)-1H-imidazole-5-carboxylic acid] | * *
Cc1nc(-c2cncc(C(F)(F)F)c2)n(Cc2cccc3ccccc23)c1C(=O)O [Compound A138, 4-methyl-1-(naphthalen-1-ylmethyl)-2-(5-(trifluoromethyl)pyridin-3-yl)-1H-imidazole-5-carboxylic acid] | * *
Cc1nc(-c2cccnc2)n(Cc2ccc(C)c3ccccc23)c1C(=O)O [Compound A17, 4-methyl-1-((4-methylnaphthalen-1-yl)methyl)-2-(pyridin-3-yl)-1H-imidazole-5-carboxylic acid] | * *
Cc1nc(Oc2cnccc2Cl)n(Cc2cc(Cl)ccc2Cl)c1C(=O)O [Compound A257, 2-((4-chloropyridin-3-yl)oxy)-1-(2,5-dichlorobenzyl)-4-methyl-1H-imidazole-5-carboxylic acid] | * * *
O=C(NS(=O)(=O)C1CC1)c1ccc(-c2cncc(F)c2)n1Cc1cc(Cl)ccc1Cl [Compound B27, N-(cyclopropylsulfonyl)-1-(2,5-dichlorobenzyl)-2-(5-fluoropyridin-3-yl)-1H-pyrrole-5-carboxamide] | * * *
Cc1nc(-c2cncc(F)c2)n(Cc2cc(Cl)sc2Cl)c1C(=O)O [Compound A225, 1-((2,5-dichlorothiophen-3-yl)methyl)-2-(5-fluoropyridin-3-yl)-4-methyl-1H-imidazole-5-carboxylic acid] | * * *
O=C(O)c1c(Cl)nc(-c2cncc(Cl)c2)n1Cc1cc(Cl)ccc1Cl [Compound A220, 4-chloro-2-(5-chloropyridine-3-yl)-1-(2,5-dichlorobenzyl)-1H-imidazole-5-carboxylic acid] | * * *
CSc1cncc(-c2nc(C)c(C(=O)O)n2Cc2cc(Cl)ccc2Cl)c1 [Compound A182, 1-(2,5-dichlorobenzyl)-4-methyl-2-(5-(methylthio)pyridin-3-yl)-1H-imidazole-5-carboxylic acid] | * * *
Cc1nc(-c2cncc(OCC(C)C)c2)n(Cc2cc(Cl)ccc2Cl)c1C(=O)O [Compound A188, 1-(2,5-dichlorobenzyl)-2-(5-isobutoxypyridin-3-yl)-4-methyl-1H-imidazole-5-carboxylic acid] | * * *
O=C(O)c1nc(-c2cncc(Cl)c2)n(Cc2cc(Cl)ccc2Cl)c1C(=O)O [Compound A210, 2-(5-chloropyridin-3-yl)-1-(2,5-dichlorobenzyl)-1H-imidazole-4,5-dicarboxylic acid] | * * *
Cc1ccc(Cl)c(Cn2c(-c3cccnc3)nc(C)c2C(=O)O)c1 [Compound A78, 1-(2-chloro-5-methylbenzyl)-4-methyl-2-(pyridin-3-yl)-1H-imidazole-5-carboxylic acid] | * * *
CS(=O)(=O)N1CCN(Cc2nc(-c3cncc(Cl)c3)n(Cc3cc(Cl)ccc3Cl)c2C(=O)O)CC1 [Compound A203, 2-(5-chloropyridin-3-yl)-1-(2,5-dichlorobenzyl)-4-((4-(methylsulfonyl)piperazin-1-yl)methyl)-1H-imidazole-5-carboxylic acid] | * *
CCc1nc(-c2cncc(Cl)c2)n(Cc2cc(Cl)ccc2Cl)c1C(=O)O [Compound A151, 2-(5-chloropyridin-3-yl)-1-(2,5-dichlorobenzyl)-4-ethyl-1H-imidazole-5-carboxylic acid] | * * *
O=C(O)c1c(C2CC2)nc(-c2cccnc2)n1Cc1csc2cccc(Cl)c12 [Compound A33, 1-((4-chlorobenzo[b]thiophen-3-yl)methyl)-4-cyclopropyl-2-(pyridin-3-yl)-1H-imidazole-5-carboxylic acid] | * *
O=C(O)c1cnc(-c2cncc(F)c2)n1Cc1cc(Cl)ccc1Cl [Compound A171, 1-(2,5-dichlorobenzyl)-2-(5-fluoropyridin-3-yl)-1H-imidazole-5-carboxylic acid] | * * *
Cc1nc(-c2cncc(C#N)c2)n(Cc2cc(Cl)ccc2Cl)c1C(=O)O [Compound A158, 2-(5-cyanopyridin-3-yl)-1-(2,5-dichlorobenzyl)-4-methyl-1H-imidazole-5-carboxylic acid] | * *
Cc1nc(-c2ccc(Cl)nc2)n(Cc2cc(Cl)ccc2Cl)c1C(=O)O [Compound A164, 2-(6-chloropyridin-3-yl)-1-(2,5-dichlorobenzyl)-4-methyl-1H-imidazole-5-carboxylic acid] | * *
O=C(O)c1c(Br)nc(-c2cccnc2)n1Cc1cc(Cl)ccc1Cl [Compound A89, 4-bromo-1-(2,5-dichlorobenzyl)-2-(pyridin-3-yl)-1H-imidazole-5-carboxylic acid] | * * *

Same assay, conditions: HEK 293 cells expressing human URAT1; 14C-labeled uric acid 25 μM; uptake 37° C. for 5 min; read-out: Inhibitory Activity (IC50 of uric acid transport inhibition)

Structure (SMILES) | IC50 [µM]
COc1cncc(-c2nc(C)c(C(=O)O)n2Cc2cccc3ccccc23)c1 [Compound A120] | 2 to 20
O=C(O)/C=C/c1cnc(-c2cccnc2)n1Cc1cc(Cl)ccc1Cl [Compound A260] | 2 to 20
Cc1nc(-c2cccnc2)n(Cc2ccccc2C#N)c1C(=O)O [Compound A64] | 2 to 20
Cc1nc(-c2cccnc2)n(Cc2ccc(F)c(Cl)c2)c1C(=O)O [Compound A75] | 2 to 20
Cc1nc(-c2cccnc2)n(Cc2cccc(OC(F)(F)F)c2)c1C(=O)O [Compound A63] | 2 to 20
Cc1nc(-c2cccnc2)n(Cc2ccc(Cl)cc2)c1C(=O)O [Compound A53] | 2 to 20
Cc1nc(-c2cccnc2)n(Cc2cc(Cl)ccc2Cl)c1C(=O)NS(=O)(=O)C1CC1 [Compound A112] | 2 to 20
Cc1nc(-c2cccnc2)n(Cc2c(F)cccc2Cl)c1C(=O)O [Compound A72] | 2 to 20
Cc1nc(-c2cncc([S+](C)(=O)[O-])c2)n(Cc2cc(Cl)ccc2Cl)c1C(=O)O [Compound A165] | 2 to 20
